According to patent US20170190705A1, “Compositions and Methods for Inhibiting BMP” (THE BRIGHAM AND WOMAN'S HOSPITAL, INC., priority 2014, published 2017):

Assays:
[1] = biological target: T1, caALK2 (Homo sapiens, UniProt Q04771, Q207D); experiment: Luciferase reporter assay constitutively active ALK2; format: cell-based
T1 construct: expressed in transfected cells; host or cells: C2C12 BRE-Luc cells infected with adenovirus (MOI 100)
Method: The cells were incubated for 1 h (37° C. and 10% CO2) and allowed to settle and attach. Compounds of interest or DMSO were diluted in DMEM and added at final compound concentrations of 1 nM to 10 μM. Cells were then incubated for 30 min. Adenovirus expressing constitutively active BMP and TGF-β type I receptors (Ad.caALK1-5), generously provided by Dr. Akiko Hata (University of to California at San Francisco), were added to achieve a multiplicity of infection (MOI) of 100. Plates were incubated overnight at 37° C. Cell viability was assayed with an MIT (3-(4,5-dimethylthiazol-2-yl)-2,5-diphenyl tetrazolium bromide) colorimetric assay (Promega) per the manufacturer's instructions. Media was discarded, and firefly luciferase activity was measured (Promega) according to manufacturer's protocol. Light output was measured using a Spectramax L luminometer (Molecular Devices) with an integration time of one second per well. Data was normalized to 100% of incremental BRE-Luc activity due to adenoviruses specifying caALK1, 2, or 3, or the incremental CAGA-Luc activity due to adenoviruses specifying caALK4 or 5.

[2] = biological target: PDGFRα (Homo sapiens, UniProt P16234); experiment: Kinome profiling PDGFRα; format: biochemical; conditions: read-out: Inhibitory activity PDGFRα; for inhibition at 0.1 µM: 100 nM
Method: (§1) . The kinome-wide selectivity was determined following the methods previously reported by Mohedas et al., ACS Chem Biol 2013, 8, 1291-1302 and Sanvitale et al., PLoS One 2013, 8, e62721.

[3] = biological target: FGR (Homo sapiens, UniProt P09769); experiment: Kinome profiling FGR; format: biochemical; conditions: read-out: Inhibitory activity FGR; for inhibition at 0.1 µM: 100 nM
Method: as §1

[4] = biological target: LTK (Homo sapiens, UniProt P29376); experiment: Kinome profiling LTK; format: biochemical; conditions: read-out: Inhibitory activity LTK; for inhibition at 0.1 µM: 100 nM
Method: as §1

[5] = biological target: TNK2 (Homo sapiens, UniProt Q07912); experiment: Kinome profiling TNK2; format: biochemical; conditions: read-out: Inhibitory activity TNK2; for inhibition at 0.1 µM: 100 nM
Method: as §1

[6] = biological target: KDR (Homo sapiens, UniProt P35968); experiment: Kinome profiling KDR; format: biochemical; conditions: read-out: Inhibitory activity KDR; for inhibition at 0.1 µM: 100 nM
Method: as §1

[7] = biological target: P38α (Homo sapiens, UniProt Q16539); experiment: Kinome profiling P38α; format: biochemical; conditions: read-out: Inhibitory activity P38α; for inhibition at 0.1 µM: 100 nM
Method: as §1

[8] = biological target: AMP-A1B1G1 (Homo sapiens, UniProt Q13131); experiment: Kinome profiling AMP-A1B1G1; format: biochemical; conditions: read-out: Inhibitory activity AMP-A1B1G1; for inhibition at 0.1 µM: 100 nM
Method: as §1

[9] = biological target: DYRK1B (Homo sapiens, UniProt Q9Y463); experiment: Kinome profiling DYRK1B; format: biochemical; conditions: read-out: Inhibitory activity DYRK1B; for inhibition at 0.1 µM: 100 nM
Method: as §1

[10] = biological target: T2, JAK3 (Homo sapiens, UniProt P52333); experiment: Kinome profiling JAK3; format: biochemical; conditions: read-out: Inhibitory activity JAK3; for inhibition at 0.1 µM: 100 nM
T2 sequence (P52333 1-1124): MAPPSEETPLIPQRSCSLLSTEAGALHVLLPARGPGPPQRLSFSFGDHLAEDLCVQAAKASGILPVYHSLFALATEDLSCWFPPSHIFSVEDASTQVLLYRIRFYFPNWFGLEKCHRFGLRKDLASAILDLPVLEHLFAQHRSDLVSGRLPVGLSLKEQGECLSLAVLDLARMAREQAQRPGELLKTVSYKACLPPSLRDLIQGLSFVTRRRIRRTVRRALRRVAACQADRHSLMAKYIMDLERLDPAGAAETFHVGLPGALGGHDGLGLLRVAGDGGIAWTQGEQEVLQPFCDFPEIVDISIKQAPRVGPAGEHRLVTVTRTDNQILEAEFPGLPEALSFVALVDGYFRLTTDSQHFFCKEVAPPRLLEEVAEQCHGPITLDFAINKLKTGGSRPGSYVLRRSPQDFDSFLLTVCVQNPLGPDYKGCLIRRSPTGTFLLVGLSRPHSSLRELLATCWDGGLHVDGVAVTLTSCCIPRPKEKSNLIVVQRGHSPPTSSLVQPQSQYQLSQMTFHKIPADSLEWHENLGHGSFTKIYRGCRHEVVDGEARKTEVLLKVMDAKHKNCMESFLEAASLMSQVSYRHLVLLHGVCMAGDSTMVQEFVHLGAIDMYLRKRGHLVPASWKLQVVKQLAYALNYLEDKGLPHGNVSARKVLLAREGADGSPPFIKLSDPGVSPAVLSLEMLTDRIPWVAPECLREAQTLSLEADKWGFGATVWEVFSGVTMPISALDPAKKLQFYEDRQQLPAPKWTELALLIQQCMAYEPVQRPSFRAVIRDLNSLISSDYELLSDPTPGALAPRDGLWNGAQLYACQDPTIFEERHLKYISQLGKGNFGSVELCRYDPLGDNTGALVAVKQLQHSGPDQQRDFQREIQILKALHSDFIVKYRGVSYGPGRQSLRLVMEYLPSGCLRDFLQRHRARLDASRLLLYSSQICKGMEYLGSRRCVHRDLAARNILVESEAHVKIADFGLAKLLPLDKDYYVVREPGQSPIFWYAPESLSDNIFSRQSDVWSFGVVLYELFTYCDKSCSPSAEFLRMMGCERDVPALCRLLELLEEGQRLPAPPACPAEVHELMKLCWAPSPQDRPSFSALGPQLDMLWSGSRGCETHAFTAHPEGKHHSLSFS
Method: as §1

[11] = biological target: CLK3 (Homo sapiens, UniProt P49761); experiment: Kinome profiling CLK3; format: biochemical; conditions: read-out: Inhibitory activity CLK3; for inhibition at 0.1 µM: 100 nM
Method: as §1

[12] = biological target: SYK (Homo sapiens, UniProt P43405); experiment: Kinome profiling SYK; format: biochemical; conditions: read-out: Inhibitory activity SYK; for inhibition at 0.1 µM: 100 nM
Method: as §1

[13] = biological target: SPHK1 (Homo sapiens, UniProt Q9NYA1); experiment: Kinome profiling SPHK1; format: biochemical; conditions: read-out: Inhibitory activity SPHK1; for inhibition at 0.1 µM: 100 nM
Method: as §1

Chain of FGR (P09769 whole entry): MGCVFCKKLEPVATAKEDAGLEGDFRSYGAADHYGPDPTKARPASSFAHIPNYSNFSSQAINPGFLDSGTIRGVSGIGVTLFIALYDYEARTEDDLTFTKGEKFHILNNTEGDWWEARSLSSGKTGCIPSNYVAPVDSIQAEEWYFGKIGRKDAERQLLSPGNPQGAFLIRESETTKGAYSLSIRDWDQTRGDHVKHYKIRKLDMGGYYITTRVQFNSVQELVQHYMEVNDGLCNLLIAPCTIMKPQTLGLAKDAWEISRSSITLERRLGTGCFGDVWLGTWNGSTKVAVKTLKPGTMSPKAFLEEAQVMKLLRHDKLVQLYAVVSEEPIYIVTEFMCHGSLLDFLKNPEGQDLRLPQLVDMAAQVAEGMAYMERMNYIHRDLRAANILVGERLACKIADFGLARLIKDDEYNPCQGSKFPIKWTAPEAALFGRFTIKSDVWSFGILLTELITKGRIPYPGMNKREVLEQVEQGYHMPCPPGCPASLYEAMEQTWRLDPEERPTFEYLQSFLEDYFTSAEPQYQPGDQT
Chain of SPHK1 (Q9NYA1 whole entry): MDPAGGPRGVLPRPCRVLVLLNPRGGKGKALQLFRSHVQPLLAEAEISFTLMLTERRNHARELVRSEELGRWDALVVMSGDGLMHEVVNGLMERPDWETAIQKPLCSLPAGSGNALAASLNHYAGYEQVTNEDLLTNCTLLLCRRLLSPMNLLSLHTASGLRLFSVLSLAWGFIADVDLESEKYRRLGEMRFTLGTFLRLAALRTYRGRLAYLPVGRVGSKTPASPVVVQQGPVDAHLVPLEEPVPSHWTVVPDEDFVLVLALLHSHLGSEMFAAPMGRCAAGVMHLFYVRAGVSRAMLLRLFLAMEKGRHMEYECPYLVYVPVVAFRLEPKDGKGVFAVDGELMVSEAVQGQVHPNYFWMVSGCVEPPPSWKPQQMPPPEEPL
Chain of AMP-A1B1G1 (Q13131 whole entry): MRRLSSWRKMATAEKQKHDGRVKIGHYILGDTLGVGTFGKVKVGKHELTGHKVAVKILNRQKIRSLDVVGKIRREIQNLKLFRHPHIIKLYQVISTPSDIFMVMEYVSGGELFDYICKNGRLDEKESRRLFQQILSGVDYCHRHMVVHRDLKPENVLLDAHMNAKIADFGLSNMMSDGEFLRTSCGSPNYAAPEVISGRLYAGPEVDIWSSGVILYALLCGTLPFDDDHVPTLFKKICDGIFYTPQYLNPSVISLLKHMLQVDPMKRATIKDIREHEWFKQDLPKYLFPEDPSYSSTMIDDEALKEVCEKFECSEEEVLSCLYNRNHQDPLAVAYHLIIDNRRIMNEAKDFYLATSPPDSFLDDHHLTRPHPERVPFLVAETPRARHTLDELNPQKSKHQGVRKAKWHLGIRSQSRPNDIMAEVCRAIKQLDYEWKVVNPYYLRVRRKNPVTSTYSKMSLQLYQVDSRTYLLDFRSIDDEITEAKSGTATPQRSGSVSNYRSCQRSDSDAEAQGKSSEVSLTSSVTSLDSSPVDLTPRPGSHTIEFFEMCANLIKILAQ
Chain of AMP-A1B1G1 (Q9Y478 whole entry partner): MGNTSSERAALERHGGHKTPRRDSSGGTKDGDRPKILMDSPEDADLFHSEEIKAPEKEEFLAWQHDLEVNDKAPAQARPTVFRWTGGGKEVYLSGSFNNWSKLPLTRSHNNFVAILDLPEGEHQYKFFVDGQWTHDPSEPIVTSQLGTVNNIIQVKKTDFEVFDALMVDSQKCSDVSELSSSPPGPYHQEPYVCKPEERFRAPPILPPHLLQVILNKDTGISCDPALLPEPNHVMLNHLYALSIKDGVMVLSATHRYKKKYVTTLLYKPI
Chain of AMP-A1B1G1 (P54619 whole entry partner): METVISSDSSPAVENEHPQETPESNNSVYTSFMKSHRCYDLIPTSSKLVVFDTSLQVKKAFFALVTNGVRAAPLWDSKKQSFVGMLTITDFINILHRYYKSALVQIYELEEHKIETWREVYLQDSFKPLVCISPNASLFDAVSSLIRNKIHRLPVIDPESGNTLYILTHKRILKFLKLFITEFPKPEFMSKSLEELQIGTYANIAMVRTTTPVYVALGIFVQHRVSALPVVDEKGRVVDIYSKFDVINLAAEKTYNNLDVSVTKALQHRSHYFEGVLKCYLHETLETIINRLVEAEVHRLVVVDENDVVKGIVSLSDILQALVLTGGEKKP
Chain of P38α (Q16539 whole entry): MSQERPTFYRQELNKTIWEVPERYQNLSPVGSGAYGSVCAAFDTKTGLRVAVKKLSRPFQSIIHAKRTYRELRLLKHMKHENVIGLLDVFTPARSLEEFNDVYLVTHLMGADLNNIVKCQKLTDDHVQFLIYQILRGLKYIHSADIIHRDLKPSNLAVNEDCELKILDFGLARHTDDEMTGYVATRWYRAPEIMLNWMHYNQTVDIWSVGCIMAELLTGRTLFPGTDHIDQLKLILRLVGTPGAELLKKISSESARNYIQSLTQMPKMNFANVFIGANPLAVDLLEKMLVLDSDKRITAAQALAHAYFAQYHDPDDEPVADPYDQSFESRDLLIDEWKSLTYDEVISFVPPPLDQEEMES
Chain of TNK2 (Q07912 whole entry): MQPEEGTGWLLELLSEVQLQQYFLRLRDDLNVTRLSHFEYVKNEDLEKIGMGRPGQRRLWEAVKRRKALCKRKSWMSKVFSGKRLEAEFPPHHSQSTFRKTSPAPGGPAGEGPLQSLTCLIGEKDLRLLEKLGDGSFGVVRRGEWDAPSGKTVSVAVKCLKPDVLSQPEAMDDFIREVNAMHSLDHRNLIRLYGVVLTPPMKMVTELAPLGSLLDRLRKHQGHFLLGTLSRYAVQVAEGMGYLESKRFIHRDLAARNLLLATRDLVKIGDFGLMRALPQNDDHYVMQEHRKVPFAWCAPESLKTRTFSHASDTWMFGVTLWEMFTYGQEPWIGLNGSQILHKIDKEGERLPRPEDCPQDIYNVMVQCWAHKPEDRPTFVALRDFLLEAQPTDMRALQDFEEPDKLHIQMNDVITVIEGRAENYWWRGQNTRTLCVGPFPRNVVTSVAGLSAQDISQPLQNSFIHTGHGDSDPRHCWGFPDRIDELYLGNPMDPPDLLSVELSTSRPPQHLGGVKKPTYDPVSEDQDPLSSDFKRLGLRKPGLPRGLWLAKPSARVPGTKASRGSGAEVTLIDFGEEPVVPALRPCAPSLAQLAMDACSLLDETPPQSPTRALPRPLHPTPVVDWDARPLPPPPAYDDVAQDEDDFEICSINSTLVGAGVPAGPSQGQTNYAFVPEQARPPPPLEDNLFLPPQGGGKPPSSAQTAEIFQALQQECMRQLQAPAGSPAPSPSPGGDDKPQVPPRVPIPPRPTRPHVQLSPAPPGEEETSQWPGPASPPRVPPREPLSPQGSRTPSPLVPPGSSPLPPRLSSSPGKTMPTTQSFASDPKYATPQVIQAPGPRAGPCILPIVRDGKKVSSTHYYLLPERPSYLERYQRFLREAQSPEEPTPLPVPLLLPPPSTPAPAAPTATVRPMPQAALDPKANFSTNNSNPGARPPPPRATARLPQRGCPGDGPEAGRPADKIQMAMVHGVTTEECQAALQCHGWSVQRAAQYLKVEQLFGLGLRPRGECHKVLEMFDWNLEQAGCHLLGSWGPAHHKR
Chain of LTK (P29376 17-864): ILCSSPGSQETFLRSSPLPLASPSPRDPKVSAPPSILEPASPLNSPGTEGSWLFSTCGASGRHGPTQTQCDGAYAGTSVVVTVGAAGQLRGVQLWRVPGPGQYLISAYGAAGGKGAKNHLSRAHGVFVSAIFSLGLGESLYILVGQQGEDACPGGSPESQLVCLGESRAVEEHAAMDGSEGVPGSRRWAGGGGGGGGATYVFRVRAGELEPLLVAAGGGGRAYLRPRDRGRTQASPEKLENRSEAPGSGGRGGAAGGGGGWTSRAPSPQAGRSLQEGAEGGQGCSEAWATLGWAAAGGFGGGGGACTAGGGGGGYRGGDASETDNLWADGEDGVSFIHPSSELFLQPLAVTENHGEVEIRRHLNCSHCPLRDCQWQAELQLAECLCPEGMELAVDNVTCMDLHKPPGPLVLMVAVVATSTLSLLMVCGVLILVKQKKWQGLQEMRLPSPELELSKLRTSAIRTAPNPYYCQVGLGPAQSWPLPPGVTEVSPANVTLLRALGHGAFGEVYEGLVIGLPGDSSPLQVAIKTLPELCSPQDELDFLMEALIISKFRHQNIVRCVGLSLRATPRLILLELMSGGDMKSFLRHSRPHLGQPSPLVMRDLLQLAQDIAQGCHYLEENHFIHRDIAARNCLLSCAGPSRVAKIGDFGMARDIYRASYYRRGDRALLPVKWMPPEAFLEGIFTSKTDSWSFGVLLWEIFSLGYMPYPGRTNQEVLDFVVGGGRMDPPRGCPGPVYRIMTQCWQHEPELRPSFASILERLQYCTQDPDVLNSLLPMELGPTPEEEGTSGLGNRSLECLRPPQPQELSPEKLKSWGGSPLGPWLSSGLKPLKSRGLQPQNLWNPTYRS
Chain of CLK3 (P49761 whole entry): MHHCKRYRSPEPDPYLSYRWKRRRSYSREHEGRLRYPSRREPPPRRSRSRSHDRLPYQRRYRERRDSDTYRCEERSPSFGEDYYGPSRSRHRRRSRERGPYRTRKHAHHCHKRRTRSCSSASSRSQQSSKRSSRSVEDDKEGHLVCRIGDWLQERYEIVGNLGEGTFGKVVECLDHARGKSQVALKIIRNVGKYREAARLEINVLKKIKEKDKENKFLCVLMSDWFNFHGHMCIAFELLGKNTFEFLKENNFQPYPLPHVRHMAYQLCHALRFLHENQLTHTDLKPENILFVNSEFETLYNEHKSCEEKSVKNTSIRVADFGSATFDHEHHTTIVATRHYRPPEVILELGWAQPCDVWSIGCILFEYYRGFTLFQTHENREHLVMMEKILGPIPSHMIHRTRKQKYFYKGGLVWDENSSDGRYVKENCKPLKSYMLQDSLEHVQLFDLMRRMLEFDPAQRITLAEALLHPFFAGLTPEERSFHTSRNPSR

| Compound | inhibition at 0.1 µM [2] [%] | inhibition at 1 µM [2] [%] | inhibition at 0.1 µM [3] [%] | inhibition at 1 µM [3] [%] | inhibition at 0.1 µM [4] [%] | inhibition at 1 µM [4] [%] | inhibition at 0.1 µM [5] [%] | inhibition at 1 µM [5] [%] | inhibition at 0.1 µM [6] [%] | inhibition at 1 µM [6] [%] | inhibition at 0.1 µM [7] [%] | inhibition at 1 µM [7] [%] | inhibition at 0.1 µM [8] [%] | inhibition at 1 µM [8] [%] | inhibition at 0.1 µM [9] [%] | inhibition at 1 µM [9] [%] | inhibition at 0.1 µM [10] [%] | inhibition at 1 µM [10] [%] | inhibition at 0.1 µM [11] [%] | inhibition at 1 µM [11] [%] | also measured |
| --- | --- | --- | --- | --- | --- | --- | --- | --- | --- | --- | --- | --- | --- | --- | --- | --- | --- | --- | --- | --- | --- |
| COc1cc(-c2cc(-c3ccc(N4CCNCC4)cc3)cnc2C)cc(OC)c1OC [Compound 10, 1-(4-(6-methyl-5-(3,4,5-trimethoxyphenyl)pyridin-3-yl)phenyl)piperazine] | 9 | 40 | 9 | 36 | 4 | 10 | 6 | 35 | 0 | 3 | -2 | 1 | 5 | 1 | 2 | 5 | 3 | 3 | 9 | 12 | potency ([1]; comparison across multiple assays (Tables 6 and 7)): reduction in potency; inhibition at 0.1 µM [12]: 0%; inhibition at 1 µM [12]: -1%; inhibition at 0.1 µM [13]: 0%; inhibition at 1 µM [13]: 0% |
| COc1cc(-c2cc(-c3ccc(N4CCNCC4)cc3)cnc2N)cc(OC)c1OC [Compound 15, 5-(4-(piperazin-1-yl)phenyl)-3-(3,4,5-trimethoxyphenyl)pyridin-2-amine] | 39 | 76 | 36 | 76 | 13 | 60 | 6 | 44 | 6 | 22 | 4 | 9 | 0 | 5 | -1 | 4 | 0 | 3 | 0 | 0 | IC50 ([1]; read-out: Cell Based Assay caALK2 IC50): 5 nM; inhibition at 0.1 µM [12]: 1%; inhibition at 1 µM [12]: -4%; inhibition at 0.1 µM [13]: 2%; inhibition at 1 µM [13]: -12% |
